According to paper PMC3392958, “Assay Format as a Critical Success Factor for Identification of Novel Inhibitor Chemotypes of Tissue-Nonspecific Alkaline Phosphatase from High-Throughput Screening” (Molecules, 2010):
Like-named read-outs stand apart in the source and are kept apart here.

How the values were obtained:
human PLAP = biological target: T1, human PLAP (Homo sapiens, UniProt P05187); assay: PLAP luminescent assay (CDP-star); assay type: biochemical
T1 construct: made in house; host or cells: COS-1 cells, transient expression; dialyzed serum-free conditioned medium
Method: (§1) Selectivity of Primary Actives Against other Phosphatases: To assess the selectivity of compounds across the alkaline phosphatase family, luminescent assays were developed for human PLAP and human IAP with the same CDP-Star reagent.
(§2) Development of the novel luminescent TNAP assay using CDP-star substrate and detailed protocol of its application for HTS is described in more detail elsewhere. […] Briefly, the assay was 50 μM CDP-star substrate in assay buffer containing 100 mM DEA-HCl (pH 9.8), 1 mM MgCl2, and 20 μM ZnCl2. The luminescence signal was measured after a 30-min incubation at room temperature on an EnVision plate reader (PerkinElmer, Waltham, MA). […] Detailed protocols can be found in the respective AIDs, however, the final buffer conditions were 100 mM DEA, pH 9.8, 1.0 mM MgCl2, 0.02 mM ZnCl2 for both PLAP and IAP.

IAP = biological target: T2, IAP (Homo sapiens, UniProt P09923); assay: IAP luminescent assay (CDP-star); assay type: biochemical
T2 construct: made in house; host or cells: COS-1 cells, transient expression; dialyzed serum-free conditioned medium
T2 sequence (P09923 20-503 limits assumed): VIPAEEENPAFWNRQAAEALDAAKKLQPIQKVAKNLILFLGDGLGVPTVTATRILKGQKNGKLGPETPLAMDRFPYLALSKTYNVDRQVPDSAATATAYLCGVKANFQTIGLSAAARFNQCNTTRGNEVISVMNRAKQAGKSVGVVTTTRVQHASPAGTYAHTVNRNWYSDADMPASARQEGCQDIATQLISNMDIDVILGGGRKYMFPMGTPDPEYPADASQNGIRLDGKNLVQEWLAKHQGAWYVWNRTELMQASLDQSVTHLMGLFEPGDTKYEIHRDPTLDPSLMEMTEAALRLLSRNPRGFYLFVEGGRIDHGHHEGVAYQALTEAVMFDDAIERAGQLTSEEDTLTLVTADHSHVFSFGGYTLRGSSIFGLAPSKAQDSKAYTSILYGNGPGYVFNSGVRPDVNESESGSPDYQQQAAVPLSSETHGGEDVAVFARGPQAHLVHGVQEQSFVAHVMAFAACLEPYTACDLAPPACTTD
Method: as §1, §2

TNAP [1] = biological target: T3, TNAP (Homo sapiens, UniProt P05186); assay: TNAP luminescent assay (CDP-star substrate, 100 mM DEA); assay type: biochemical
T3 construct: made in house; host or cells: COS-1 cells, transient expression; dialyzed serum-free conditioned medium
T3 sequence (P05186 18-501 limits assumed): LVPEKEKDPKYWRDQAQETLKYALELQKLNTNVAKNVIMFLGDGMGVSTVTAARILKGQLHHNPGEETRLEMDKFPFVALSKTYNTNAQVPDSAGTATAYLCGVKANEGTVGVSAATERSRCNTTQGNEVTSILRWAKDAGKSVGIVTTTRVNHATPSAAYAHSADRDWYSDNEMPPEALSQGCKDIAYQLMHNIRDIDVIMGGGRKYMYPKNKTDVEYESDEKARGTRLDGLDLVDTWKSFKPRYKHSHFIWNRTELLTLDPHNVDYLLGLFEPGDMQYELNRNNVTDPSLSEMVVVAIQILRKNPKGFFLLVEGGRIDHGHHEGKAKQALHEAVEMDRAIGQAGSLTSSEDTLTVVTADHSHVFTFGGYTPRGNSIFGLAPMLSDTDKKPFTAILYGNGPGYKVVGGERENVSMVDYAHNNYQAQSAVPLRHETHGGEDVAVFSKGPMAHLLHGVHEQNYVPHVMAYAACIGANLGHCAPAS
Method: as §2

TNAP [2] = biological target: T3, TNAP; assay: TNAP colorimetric malachite green phosphate detection (MG) assay; assay type: biochemical; conditions: fresh solid samples from vendors; read-out: IC50 SAR-MG
Method: (§3) The colorimetric TNAP assay was performed as previously described with slight modifications.

TNAP [3] = biological target: T3, TNAP; parameters: method as in PMID 19556612; conditions: three DEA concentrations tested; cited from earlier work
TNAP [4] = biological target: T3, TNAP; assay: TNAP colorimetric assay (pNPP substrate, OD405, 1M DEA); assay type: biochemical
Method: as §3

[5] = catechol series, read-out: PLAP IC50
[6] = TNAP, read-out: IC50 (Figure 6, pyrazole series optimization)
[7] = luminescence-based assay, 0.1M DEA, read-out: TNAP IC50
[8] = read-out: Selectivity Panel IC50 PLAP
[9] = compounds from MLSMR in liquid form, read-out: IC50 HTS-Color
[10] = fresh solid samples from vendors, read-out: IC50 SAR-Color
[11] = read-out: Selectivity Panel IC50 IAP
[12] = compounds from MLSMR in liquid form, read-out: IC50 HTS-Lumi
[13] = fresh solid samples from vendors, read-out: IC50 SAR-Lumi
[14] = read-out: Selectivity Panel IC50 TNAP
[15] = phtalimide triazole series, read-out: IC50 IAP-Lumi
[16] = phtalimide triazole series, read-out: IC50 TNAP- Lumi
[17] = bisarylsulfonamide series, NA = inactive (up to 100 µM), read-out: TNAP-Lumi IC50

T1 sequence (P05187 23-506 limits assumed): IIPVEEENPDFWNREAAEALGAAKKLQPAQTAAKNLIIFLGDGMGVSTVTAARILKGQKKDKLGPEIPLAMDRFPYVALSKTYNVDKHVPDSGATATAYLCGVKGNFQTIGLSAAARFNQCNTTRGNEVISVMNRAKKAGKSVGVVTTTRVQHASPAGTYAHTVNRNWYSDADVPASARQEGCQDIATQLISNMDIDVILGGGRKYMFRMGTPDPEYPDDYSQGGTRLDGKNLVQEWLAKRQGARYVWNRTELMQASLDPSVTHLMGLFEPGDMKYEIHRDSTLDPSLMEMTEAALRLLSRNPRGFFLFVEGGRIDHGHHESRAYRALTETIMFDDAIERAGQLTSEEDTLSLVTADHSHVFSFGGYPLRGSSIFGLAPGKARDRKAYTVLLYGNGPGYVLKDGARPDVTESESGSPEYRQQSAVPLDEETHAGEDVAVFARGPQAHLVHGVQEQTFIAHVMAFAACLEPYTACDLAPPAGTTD

In the case of `O=C(Cn1ccnc1)c1ccc(O)c(O)c1` [Compound 1], the IC50 (human PLAP; [5]) is reported as 2100 nM and the IC50 (IAP; catechol series, read-out: IAP IC50) is reported as 30200 nM.
`O=C(CNc1nc2ccccc2[nH]1)c1ccc(O)c(O)c1` [Compound 2] showed an IC50 (human PLAP; [5]) of 9100 nM.
`O=C(O)c1[nH]nc2c1COc1ccccc1-2` [MLS-0004120] showed an IC50 (TNAP [1]; [6]) of 1300 nM and an IC50 (TNAP [1]; [7]) of 1330 nM.
In the case of `O=C(O)c1cc(-c2ccccc2Cl)[nH]n1` [MLS-0005718], the IC50 (TNAP [2]) is given as > 100000 nM, the IC50 (human PLAP; [8]) is given as > 100000 nM and the “mechanism of TNAP inhibition with respect to DEA” value (from here on “mechanism of TNAP inhibition”) (TNAP [3]) is given as “competitive”. The IC50 (TNAP [4]; [9]) was > 100000 nM, the IC50 (TNAP [4]; [10]) was > 100000 nM and the IC50 (IAP; [11]) was 44000 nM. For the same compound, the IC50 (TNAP [1]; [6]) was 1000 nM, the IC50 (TNAP [1]; [12]) was 980 nM and the IC50 (TNAP [1]; [13]) was 740 nM. For the same compound, the IC50 (TNAP [1]; [14]) was 740 nM.
For `COc1ccc(C)cc1S(=O)(=O)Nc1cccnc1` [MLS-0010847], the IC50 (TNAP [2]) was 950 nM, the IC50 (human PLAP; [8]) was > 100000 nM and the IC50 (TNAP [4]; [9]) was 710 nM. For the same compound, the IC50 (TNAP [4]; [10]) was 830 nM, the IC50 (IAP; [11]) was > 100000 nM and the IC50 (TNAP [1]; [12]) was 1800 nM. It also gave an IC50 (TNAP [1]; [13]) of 930 nM and an IC50 (TNAP [1]; [14]) of 930 nM.
For `Oc1cc(-c2cccc3ccccc23)[nH]n1` [MLS-0039961], the IC50 (TNAP [2]) is given as 74000 nM, the IC50 (human PLAP; [8]) is given as > 100000 nM and the “mechanism of TNAP inhibition” value (TNAP [3]) is given as “noncompetitive”. For the same compound, the IC50 (TNAP [4]; [9]) was 21000 nM, the IC50 (TNAP [4]; [10]) was 46000 nM and the IC50 (IAP; [11]) was > 100000 nM. The IC50 (TNAP [1]; [12]) was 3200 nM and the IC50 (TNAP [1]; [13]) was 4600 nM.
In the case of `O=C1C2CC=CCC2C(=O)N1c1n[nH]c(Cc2ccccc2)n1` (centres unmarked) [MLS-0067142], the IC50 (TNAP [2]) is listed as > 100000 nM, the IC50 (human PLAP; [8]) is listed as 3100 nM and the “mechanism of TNAP inhibition” value (TNAP [3]) is listed as “competitive”. The IC50 (TNAP [4]; [9]) was > 100000 nM, the IC50 (TNAP [4]; [10]) was > 100000 nM and the IC50 (IAP; [15]) was 540 nM. For the same compound, the IC50 (IAP; [11]) was 540 nM, the IC50 (TNAP [1]; [12]) was 240 nM and the IC50 (TNAP [1]; [16]) was 210 nM. The IC50 (TNAP [1]; [14]) was 190 nM.
For `COc1ccc(OC)c(S(=O)(=O)Nc2cccnc2)c1` [MLS-0068486], the “reduction in TNAP potency compared with the lead structure CID-2931238” value (TNAP [1]) was “roughly 4 fold” and the IC50 (TNAP [1]; [17]) was 920 nM.
For `COc1ccc(S(=O)(=O)Nc2cnc3ccccc3c2)cc1OC` [MLS-0090842], the “activity against TNAP in vitro” value (TNAP [1]; luminescence-based assay) was “inactive”.
In the case of `COc1cccc(S(=O)(=O)Nc2cnc3ccccc3c2)c1` [MLS-0090844], the “reduction in TNAP potency compared with the lead structure CID-2931238” value (TNAP [1]) is reported as 100 fold and the IC50 (TNAP [1]; [17]) is reported as 25700 nM.
For `O=S(=O)(Nc1cnc2ccccc2c1)c1ccccc1` [MLS-0090845], the IC50 (TNAP [1]; [7]) was > 100000 nM.
For `O=C1C2CC=CCC2C(=O)N1c1nnc(-c2ccco2)[nH]1` (centres unmarked) [MLS-0091966], the “selectivity for IAP over TNAP” value (IAP) was 10 fold, the IC50 (IAP; [15]) was 410 nM and the IC50 (TNAP [1]; [16]) was 4680 nM.
In the case of `O=C1C2CC=CCC2C(=O)N1c1nnc(-c2cccnc2)[nH]1` (centres unmarked) [MLS-0091977], the “selectivity for IAP over TNAP” value (IAP) is reported as 6 fold and the IC50 (TNAP [1]; [16]) is reported as 10500 nM.
Compound `O=C1c2ccccc2C(=O)N1c1nc(Cc2ccccc2)n[nH]1` [MLS-0091978] has an IC50 (TNAP [1]; [16]) of 670 nM.
With `O=C1C2CC=CCC2C(=O)N1c1nnc[nH]1` (centres unmarked) [MLS-0091980] the “activity against IAP” value (IAP) was “elimination of activity”, the IC50 (IAP; [15]) was > 100000 nM and the “activity against TNAP in vitro” value (TNAP [1]; luminescence-based assay) was “elimination of activity”. The IC50 (TNAP [1]; [16]) was > 100000 nM.
Work on `O=C1C2CCCCC2C(=O)N1c1nc(Cc2ccccc2)n[nH]1` (centres unmarked) [MLS-0091981] yielded an IC50 (IAP; [15]) of 1100 nM and an IC50 (TNAP [1]; [16]) of 1570 nM.
